As usually defined, the IC50 is the concentration needed to halve the response being measured.

Structures are written as SMILES.

The target in this test is T1, human LTA4 hydrolase (Homo sapiens, UniProt P09960).
T1 sequence (P09960 1-611): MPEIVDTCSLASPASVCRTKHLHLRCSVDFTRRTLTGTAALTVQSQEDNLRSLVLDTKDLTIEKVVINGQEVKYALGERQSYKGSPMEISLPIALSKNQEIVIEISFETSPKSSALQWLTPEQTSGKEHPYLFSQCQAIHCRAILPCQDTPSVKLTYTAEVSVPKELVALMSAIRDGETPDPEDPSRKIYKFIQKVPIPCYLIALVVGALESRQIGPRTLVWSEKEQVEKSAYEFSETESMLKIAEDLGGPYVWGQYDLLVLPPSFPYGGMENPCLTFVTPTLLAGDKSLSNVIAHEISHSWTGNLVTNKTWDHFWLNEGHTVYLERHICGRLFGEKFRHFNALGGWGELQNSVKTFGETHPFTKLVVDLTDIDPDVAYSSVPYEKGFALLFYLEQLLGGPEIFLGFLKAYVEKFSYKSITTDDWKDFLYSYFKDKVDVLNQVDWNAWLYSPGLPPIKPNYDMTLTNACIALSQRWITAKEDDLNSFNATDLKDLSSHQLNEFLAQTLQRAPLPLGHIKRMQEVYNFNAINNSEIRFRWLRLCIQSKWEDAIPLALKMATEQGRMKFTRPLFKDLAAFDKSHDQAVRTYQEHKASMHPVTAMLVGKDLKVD
Put plainly: LTA4H Enzyme assay (cleavage of Arg-AMC, fluorescence). Format: biochemical. The conditions noted are these: LTA4H Enzyme 1 nM, Arg-AMC substrate 50 μM, room temperature 1 h, fluorescence; read-out: IC50 values of LTA4H Enzyme assay. How it is done: The compounds of the invention are assessed for the ability to interact with human LTA4 hydrolase in an enzymatic assay that measures the ability of the enzyme to cleave the peptide bond of arginyl-aminomethylcoumarin (Arg-AMC). LTA4H Enzyme (1 nM final), Arg-AMC substrate (50 μM final), and compound are combined in a reaction buffer (50 mM Tris-HCl (pH 7.5), 100 mM KCl, 0.5% bovine serum albumin) at room temperature for 1 h. The formation of product is assessed by measuring the fluorescence of aminomethylcoumarin product (excitation wavelength 380 nm/emission wavelength 460 nm).
Consider `O=C(O)C1CCCN(Cc2ccc(C3COc4ccccc4O3)cc2)C1` (racemic) [Example 113, 1-[4-(2,3-dihydro-1,4-benzodioxin-2-yl)benzyl]piperidine-3-carboxylic acid], for which the half-maximal inhibitory concentration (IC50) was 2.49 nM. The value for `NC(=O)C1CCCN(Cc2ccc(C3COc4ccccc4O3)cc2)C1` (racemic) [Example 114, 1-[4-(2,3-dihydro-1,4-benzodioxin-2-yl)benzyl]piperidine-3-carboxamide] was 0.77 nM; that for `F[C@H]1CCN(Cc2ccc(C3COc4ccccc4O3)cc2)C1` (mixture of isomers) [Example 115, (3S)-1-[4-(2,3-dihydro-1,4-benzodioxin-2-yl)benzyl]-3-fluoropyrrolidine] was 3.03 nM; that for `OC1CCN(Cc2ccc([C@H]3COc4ccccc4O3)cc2)CC1` (single isomer, unassigned) [Example 192] was 0.43 nM.

On to `OC1CCN(Cc2ccc([C@@H]3COc4ccccc4O3)cc2)CC1` (single isomer, unassigned) [Example 193], for which the IC50 is 5.35 nM. The value for `O=C1NCCC12CCN(Cc1ccc([C@H]3COc4ccccc4O3)cc1)CC2` (single isomer, unassigned) [Example 194] was 0.15 nM.

Consider `O=C1NCCC12CCN(Cc1ccc([C@@H]3COc4ccccc4O3)cc1)CC2` (single isomer, unassigned) [Example 195], for which the IC50 stood at 1.59 nM. The same measure for `c1ccc2c(c1)OC[C@H](c1ccc(CN3CCCC3)cc1)O2` (single isomer, unassigned) [Example 196]: 0.39 nM; for `c1ccc2c(c1)OC[C@@H](c1ccc(CN3CCCC3)cc1)O2` (single isomer, unassigned) [Example 197]: 2.69 nM. The same measure for `c1ccc2c(c1)OC[C@H](c1ccc(CN3CCOCC3)cc1)O2` (single isomer, unassigned) [Example 198]: 2.28 nM; for `c1ccc2c(c1)OC[C@@H](c1ccc(CN3CCOCC3)cc1)O2` (single isomer, unassigned) [Example 199]: 40.1 nM; for `CN(C)C(=O)C1CCN(Cc2ccc([C@H]3COc4ccccc4O3)cc2)CC1` [Example 8, 1-{4-[(2S)-2,3-dihydro-1,4-benzodioxin-2-yl]benzyl}-N,N-dimethylpiperidine-4-carboxamide]: 0.32 nM. The value for `CN(Cc1ccc([C@H]2COc3ccccc3O2)cc1)C1CCN(S(C)(=O)=O)CC1` [Example 13, N-{4-[(2S)-2,3-dihydro-1,4-benzodioxin-2-yl]benzyl}-N-methyl-1-(methylsulfonyl)piperidin-4-amine] was 0.36 nM; that for `O=C(O)[C@@H]1CCCN(Cc2ccc([C@H]3COc4ccccc4O3)cc2)C1` [Example 19, (3R)-1-{4-[(2S)-2,3-dihydro-1,4-benzodioxin-2-yl]benzyl}piperidine-3-carboxylic acid] was 0.73 nM. Consider `O=C(O)[C@H]1CCCN(Cc2ccc([C@H]3COc4ccccc4O3)cc2)C1` [Example 20, (3S)-1-{4-[(2S)-2,3-dihydro-1,4-benzodioxin-2-yl]benzyl}piperidin-3-carboxylic acid], for which the IC50 is 1.3 nM.

Consider `OC(C1CCN(Cc2ccc([C@H]3COc4ccccc4O3)cc2)CC1)C(F)(F)F` (stereo partly drawn) [Example 21, 1-(1-{4-[(2S)-2,3-dihydro-1,4-benzodioxin-2-yl]benzyl}piperidin-4-yl)-2,2,2-trifluoroethanol], for which the IC50 came to 4.43 nM. With `OC(C1CCN(Cc2ccc([C@H]3COc4ccccc4O3)cc2)CC1)(C(F)(F)F)C(F)(F)F` [Example 22, 2-(1-{4-[(2S)-2,3-dihydro-1,4-benzodioxin-2-yl]benzyl}piperidin-4-yl)-1,1,1,3,3,3-hexafluoropropan-2-ol], the IC50 was determined as 200 nM. The same measure for `O=C(O)C1CN(Cc2ccc([C@H]3COc4ccccc4O3)cc2)Cc2ccccc21` (stereo partly drawn) [Example 56, 2-{4-[(2S)-2,3-dihydro-1,4-benzodioxin-2-yl]benzyl}-1,2,3,4-tetrahydroisoquinoline-4-carboxylic acid]: 6.08 nM.

The values are drawn from US8946203B2, “Benzodioxane inhibitors of leukotriene production” (Boehringer Ingelheim International GmbH, priority 2012, dated 2015).
